Reference: PubChem BioAssay AID1996
Converted amounts (≈) assume the structure as drawn.

Settings: buffer; pH 7.4; 200.0 µM
Compound `O=C(NC(=S)Nc1cc([N+](=O)[O-])ccc1O)c1cccnc1` has a solubility kinetic of 13.5 µg/mL (≈ 42.4 µM). With `CCOc1ccccc1C(=O)NCCCCNC(=O)c1ccccc1OCC` the solubility kinetic was 10.2 µg/mL (≈ 26.5 µM). For `Cc1cnc(NC(=O)C2CC=CCC2)s1` (stereo unspecified), the solubility kinetic was 23.9 µg/mL (≈ 108 µM). In the case of `O=C(O)C1C2C=CC(C2)C1C(=O)Nc1cccc(C(F)(F)F)c1` (stereo unspecified), the solubility kinetic is reported as 10.3 µg/mL (≈ 31.7 µM). With `O=C(Oc1coc(CSc2ncccn2)cc1=O)c1ccco1` the solubility kinetic was 46.5 µg/mL (≈ 141 µM). `Cc1ccc(NC(=S)N2CCN(S(C)(=O)=O)CC2)cc1C` showed a solubility kinetic of 9.1 µg/mL (≈ 27.8 µM). Work on `COc1ccc(C2C(C#N)=C(N)Oc3cc(N)ccc32)cc1` (stereo unspecified) yielded a solubility kinetic of 27.4 µg/mL (≈ 93.4 µM). For `CCOc1ccc(CNC(=O)c2ccco2)cc1`, the solubility kinetic was > 36.8 µg/mL. With `O=C(c1ccc(F)cc1Cl)N1CCN(CCc2ccccc2)CC1` the solubility kinetic was > 52 µg/mL. For `O=C(Nc1ccccc1)c1ccc(-c2ccc(F)cc2)s1`, the solubility kinetic was < 0.6 µg/mL. For `O=C(CN1C(=O)NC2(CCCC2)C1=O)Nc1ccc(F)c(Cl)c1`, the solubility kinetic was > 51 µg/mL. For `COc1ccccc1/C=C1\C(=O)NC(=S)N(c2ccccc2)C1=O`, the solubility kinetic was > 50.8 µg/mL. In the case of `Cc1noc(C)c1COC(=O)CNC(=O)c1cccc(F)c1`, the solubility kinetic is reported as 45.9 µg/mL (≈ 150 µM). In the case of `COc1ccc(CNC(=O)c2cccnc2SC)cc1OC`, the solubility kinetic is reported as > 47.8 µg/mL. In the case of `CC(OC(=O)Cc1ccc(Br)cc1)C(=O)NC1CCCC1` (stereo unspecified), the solubility kinetic is reported as 48.7 µg/mL (≈ 137 µM). `CN1CCN(c2ccc(CNC(=O)c3cc4ccccc4o3)cc2)CC1` showed a solubility kinetic of 49.5 µg/mL (≈ 142 µM). `CC(C)(C)c1ccc(NC(=O)c2c(F)cccc2Cl)cc1` showed a solubility kinetic of 1.1 µg/mL (≈ 3.6 µM). For `O=c1c2c([nH]c3ccccc13)CCCCC2`, the solubility kinetic was > 32 µg/mL. For `Cc1cc(C)cc(NC(=S)Nc2cccc3ccccc23)c1`, the solubility kinetic was 1.1 µg/mL (≈ 3.59 µM). `O=C(COC(=O)Cc1ccccc1F)NC(=O)NC1CCCC1` gave a solubility kinetic of 42.5 µg/mL (≈ 132 µM). Compound `O=C(CSc1ccc(Cl)cc1)NCc1ccco1` has a solubility kinetic of 16.3 µg/mL (≈ 57.8 µM). `CN=C(C)/C(C(=O)OC)=C(/O)c1ccccc1F` gave a solubility kinetic of 32.3 µg/mL (≈ 129 µM). For `Cc1ccc(-c2nc(-c3ccncc3)no2)c(C)c1`, the solubility kinetic was 0.5 µg/mL (≈ 1.99 µM). With `Cc1cc(C)cc(NC(=O)Nc2cccnc2)c1` the solubility kinetic was > 36.2 µg/mL. With `CCN(Cc1ccc(Cl)s1)C(=O)c1cccc(OCc2c(C)noc2C)c1` the solubility kinetic was 16.4 µg/mL (≈ 40.5 µM). In the case of `NC(=O)c1ccccc1N=Cc1cccnc1`, the solubility kinetic is reported as > 33.8 µg/mL. In the case of `COc1ccc(CN2CCN(C3CCC3)CC2CCO)cc1C` (stereo unspecified), the solubility kinetic is reported as 42.3 µg/mL (≈ 133 µM). `N#C/C(=C\c1cccnc1)C(=O)Nc1cccc(Cl)c1` showed a solubility kinetic of 10 µg/mL (≈ 35.2 µM). Work on `O=C(COC(=O)c1cccc(Br)c1)NCCC1=CCCCC1` yielded a solubility kinetic of 2.5 µg/mL (≈ 6.83 µM). In the case of `Cc1ccc(C(O)P(=O)(OC(C)C)c2ccc(N(C)C)cc2)cc1` (stereo unspecified), the solubility kinetic is reported as > 52.1 µg/mL. In the case of `CCCC(=O)NNC(=O)CCC(=O)Nc1ccccc1Cl`, the solubility kinetic is reported as > 46.8 µg/mL. With `O=C(O)CC1(CC(=O)Nc2ccc(C(F)(F)F)cc2)CCCC1` the solubility kinetic was > 49.4 µg/mL. With `C=CCNC(=O)CC1Nc2c3ccccc3nc(=S)n2C1=O` (stereo unspecified) the solubility kinetic was > 47.2 µg/mL. In the case of `O=C(/C=C\N1CCOCC1)c1ccc(Br)cc1`, the solubility kinetic is reported as > 44.4 µg/mL. Compound `O=S(=O)(c1c(F)cccc1F)N1CCCC2CCCCC21` (stereo unspecified) has a solubility kinetic of 13.3 µg/mL (≈ 42.2 µM). In the case of `O=C(NCc1ccccc1F)C1CCCN1C(=O)Nc1cccc(F)c1` (stereo unspecified), the solubility kinetic is reported as > 53.9 µg/mL. For `S=c1[nH]nc(Nc2ccccc2Cl)s1`, the solubility kinetic was > 36.6 µg/mL. `COc1ccc(NC(=S)Nc2cccc3cnccc23)cc1` showed a solubility kinetic of 9.9 µg/mL (≈ 32 µM). In the case of `Cc1cc(C(=O)Nc2ccc(C(=O)O)cc2)c(C)o1`, the solubility kinetic is reported as > 38.9 µg/mL. In the case of `Cc1cccc(NC(=O)C(=O)NCCc2c[nH]c3ccccc23)c1C`, the solubility kinetic is reported as 1.4 µg/mL (≈ 4.17 µM). Compound `O=C(OCC(=O)N1CCC(Cc2ccccc2)CC1)c1cc(Br)ccc1O` has a solubility kinetic of 6 µg/mL (≈ 13.9 µM). `CCOC(=O)CSCc1csc(CC(=O)Nc2ccccc2C)n1` gave a solubility kinetic of 52.4 µg/mL (≈ 144 µM). For `O=C1CCC(=O)N1CCSC(=S)N1CCSCC1`, the solubility kinetic was > 45.7 µg/mL. With `O=C1c2ccccc2-c2cccc(C(=O)N3CCCCC3)c21` the solubility kinetic was 36.7 µg/mL (≈ 126 µM). For `C/C(=N\NC(=O)c1ccccc1C)c1cccnc1`, the solubility kinetic was > 38 µg/mL. With `COc1ccc(NC(=O)CCC(=O)c2ccc(C(C)C)cc2)cc1` the solubility kinetic was < 0.7 µg/mL. Compound `O=C(NCc1ccccc1)c1cccn(Cc2ccccc2)c1=O` has a solubility kinetic of 45.9 µg/mL (≈ 144 µM). For `N#CCC(=O)Nc1ccc(C(=O)Nc2cccnc2)cc1`, the solubility kinetic was > 42 µg/mL. `COc1ccc(OC(=O)c2cnc3n(c2=O)CCS3)cc1` showed a solubility kinetic of 35 µg/mL (≈ 115 µM). With `O=C(Nc1ccc(Cl)cc1Cl)C1CCCO1` (stereo unspecified) the solubility kinetic was > 39 µg/mL. Compound `O=C1CSC(c2ccccc2)N1c1ccccc1F` (stereo unspecified) has a solubility kinetic of 40.3 µg/mL (≈ 147 µM). With `CCOC(=O)c1ccc(Nc2cc(C)nc(-c3ccccc3)n2)cc1` the solubility kinetic was < 0.2 µg/mL. For `CC(=O)/C(C#N)=C1\NC(=O)C(Cc2ccc(C)c(Cl)c2)S1` (stereo unspecified), the solubility kinetic was > 48.1 µg/mL. In the case of `Cc1cc(Cl)ccc1NC(=S)NCC(O)c1ccccc1` (stereo unspecified), the solubility kinetic is reported as > 48.1 µg/mL. For `CSc1ccccc1NC(=O)Cc1ccccc1`, the solubility kinetic was > 38.6 µg/mL. `O=C(CCCc1ccccc1)NCc1ccc(Cl)cc1` gave a solubility kinetic of 27.7 µg/mL (≈ 96.3 µM). With `Nc1cc(N)cc(C(=O)Nc2ccc3c(c2)C(=O)NC3=O)c1` the solubility kinetic was > 44.4 µg/mL. In the case of `CCC1Oc2ccccc2N(CC(=O)NC2CCCC2)C1=O` (stereo unspecified), the solubility kinetic is reported as 42.2 µg/mL (≈ 140 µM). With `S=C(NCc1ccco1)Nc1cccc(Cl)c1Cl` the solubility kinetic was 11.3 µg/mL (≈ 37.5 µM). With `CCc1ccccc1NC(=O)C1CCN(c2cnccn2)CC1` the solubility kinetic was > 46.6 µg/mL. For `C#CC1(OC(=O)c2ccccc2)CC(C)N(C)CC1C.Cl` (stereo unspecified), the solubility kinetic was > 46.2 µg/mL.
